Test results: paper PMC6150407, “Synthesis and In Vitro Antiproliferative Activity of 11-Substituted Neocryptolepines with a Branched ω-Aminoalkylamino Chain” (Molecules : A Journal of Synthetic Chemistry and Natural …, 2017)
Where a name gives a salt, the structure may show the parent alone.

Key:
[1] = test system: Human lung cancer cell line (A-549); test: Antiproliferative assay (sulforhodamine B, 72 h) against A549; assay type: cell-based; details: A549 cells, mean ± SD
Method: (§1) Anti-proliferative assays in vitro were performed in the same manner as described in the literature. The cell lines of human leukemia MV4-11, lung A549, and colon HCT 116 cancer were chosen as representing various tissue origins and BALB/3T3 normal murine fibroblasts to assess the cytotoxicity of tested compounds towards normal cells. The IC50 parameter (half-maximum inhibitory concentration) was calculated based on sulforhodamine B (HCT-116, A549, BALB/3T3) or MTT (MV4-11) assay results after 72 h of exposure. Each compound in a given concentration was tested in triplicate in each experiment, which was repeated three to five times.

[2] = test system: human leukemia MV4-11 cell line; test: Antiproliferative assay (MTT, 72 h) against human leukemia MV4-11 cell line; assay type: cell-based; details: MV4-11 cells, 72 h exposure, 50% growth inhibition, mean ± SD
Method: as §1

[3] = test system: normal murine embryonic fibroblast cell line (BALB/3T3); test: Antiproliferative assay (sulforhodamine B, 72 h) against normal murine fibroblasts BALB/3T3; assay type: cell-based, mouse; details: BALB/3T3 normal murine fibroblasts, mean ± SD
Method: as §1

[4] = test system: human colon adenocarcinoma cell line (HCT 116); test: Antiproliferative assay (sulforhodamine B, 72 h) against HCT 116; assay type: cell-based; details: HCT 116 cells, mean ± SD
Method: as §1

salmon sperm DNA = test: DNA binding study by UV-Vis absorption spectroscopy
Method: The DNA binding studies of compound 2d were performed using UV-Vis absorption spectroscopy with salmon sperm DNA in a phosphate buffer of pH 7.0 at 20 °C. […] The maximum absorption shifted from 256 nm to 289 nm. This illustrated that the mode of 2d binding to DNA was intercalation. The binding constant of 2d to DNA was calculated as 4.12 × 10^5 L·mol^−1, according to a double-reciprocal equation.
Figure 3 (a) UV-Vis absorption spectra of compound 2d at 20 °C. C(2d) = 50 μmol/L, C(DNA) = 0.0, 0.025, 0.05, 0.075, 0.1, 0.125, 0.15, 0.175, 0.2, 0.225, 0.25 μmol/L for curves 1–11 in phosphate buffer solution (pH 7.0) (b) Plot of 1/ΔA vs. 1/[DNA] for 2d-DNA.
The commercially obtained reagents (TCI, Tokyo, Japan) were used directly without further purification. The ^1H-NMR and ^13C-NMR spectra were taken on Varian INOVA-600, Varian INOVA-400, Varian INOVA-300 (Palo Alto, CA, USA), or Bruker 400 spectrometers (Billerica, MA, USA), using CDCl3 or DMSO-d6 as a solvent and tetramethylsilane (TMS) as the internal standard. The NMR spectra of the compounds are in Supplementary Materials. […] The melting points were determined on a RFS-10 hot stage microscope (J-Science, Kyoto, Japan). The UV spectra were recorded with a U-2910 spectrophotometer (Hitachi, Tokyo, Japan) in a 1 cm path length quartz cuvette at an indicated wavelength, and the sample was dissolved in phosphate buffer with 2.5% DMSO.

[5] = test system: human breast cancer MDA-MB-453 cell line; design: method as in doi:10.1007/s00044-016-1508-z; details: MDA-MB-453 breast cancer cell line; cited from earlier work
[6] = test system: human (HL-60) leukaemia cell line; design: method as in PMID 11099695; details: cited from earlier work

Row | IC50 ([2]; Homo sapiens) | IC50 ([1]; Homo sapiens, A549, 72 h) | IC50 ([4]; Homo sapiens) | SMILES | other results
1 |  |  |  | N.N.[Cl][Pt][Cl] [Cisplatin, reference compound] | IC50 [1]: 9870 ± 2400 nM; IC50 [2]: 2820 ± 450 nM; IC50 [3]: 8700 ± 97 nM; IC50 [4]: 8500 ± 540 nM
2 | 1310 ± 262 nM |  |  | Cn1c2nc3ccccc3c-2c(Cl)c2ccccc21 [Compound 1a] | 
3 | 150 ± 60 nM | 1510 ± 198 nM | 1260 ± 361 nM | Cn1c2nc3ccccc3c-2c(NCC(C)(C)CN)c2ccccc21 [Compound 2a, N-(3-Amino-2,2-dimethylpropyl)-5-methyl-5H-indolo[2,3-b]quinolin-11-amine] | IC50 ([3]; Mus musculus, BALB/3T3, 72 h): 4790 ± 2020 nM
4 | 288 ± 75 nM |  |  | Cc1ccc2c(c1)c(NCC(C)(C)CN)c1c3ccccc3nc-1n2C [Compound 2b, N-(3-Amino-2,2-dimethylpropyl)-2,5-dimethyl-5H-indolo[2,3-b]quinolin-11-amine] | 
5 | 119 ± 43 nM | 1460 ± 168 nM | 1370 ± 351 nM | Cn1c2nc3ccccc3c-2c(NCC(C)(C)CN)c2cc(Cl)ccc21 [Compound 2c, N-(3-Amino-2,2-dimethylpropyl)-2-chloro-5-methyl-5H-indolo[2,3-b]quinolin-11-amine] | IC50 ([3]; Mus musculus, BALB/3T3, 72 h): 9130 ± 844 nM
6 | 308 ± 102 nM |  |  | Cn1c2nc3ccccc3c-2c(NCC(C)(C)CN)c2cc(Br)ccc21 [Compound 2d, N-(3-Amino-2,2-dimethylpropyl)-2-bromo-5-methyl-5H-indolo[2,3-b]quinolin-11-amine] | mode of binding to DNA (salmon sperm DNA; UV-Vis, red shift 256 nm to 289 nm and hypochromic effect, pH 7.0, 20 °C): intercalation; binding constant to DNA (salmon sperm DNA; salmon sperm DNA, phosphate buffer pH 7.0, 20 °C, double-reciprocal equation): 412000 L/mol
7 | 392 ± 188 nM |  |  | Cn1c2nc3ccccc3c-2c(NCC(C)(C)N)c2ccccc21 [Compound 2e, N-(2-Amino-2-methylpropyl)-5-methyl-5H-indolo[2,3-b]quinolin-11-amine] | 
8 | 105 ± 27 nM | 1800 ± 270 nM | 2370 ± 481 nM | Cc1ccc2c(c1)c(NCC(C)(C)N)c1c3ccccc3nc-1n2C [Compound 2f, N-(2-Amino-2-methylpropyl)-2,5-dimethyl-5H-indolo[2,3-b]quinolin-11-amine] | IC50 ([3]; Mus musculus, BALB/3T3, 72 h): 10600 ± 330 nM
9 | 453 ± 209 nM |  |  | Cn1c2nc3ccccc3c-2c(NCC(C)(C)N)c2cc(Cl)ccc21 [Compound 2g, N-(2-Amino-2-methylpropyl)-2-chloro-5-methyl-5H-indolo[2,3-b]quinolin-11-amine] | 
10 | 42 ± 14 nM | 197 ± 28 nM | 138 ± 50 nM | Cn1c2nc3ccccc3c-2c(NCC(O)CN)c2cc(Cl)ccc21 (centres unmarked) [Compound 2h, 1-Amino-3-(2-chloro-5-methyl-5H-indolo[2,3-b]quinolin-11-ylamino)propan-2-ol] | 
11 | 57 ± 15 nM | 199 nM | 117 ± 55 nM | Cn1c2nc3ccccc3c-2c(NCC(O)CN)c2cc(Br)ccc21 (centres unmarked) [Compound 2k, 1-Amino-3-(2-bromo-5-methyl-5H-indolo[2,3-b]quinolin-11-ylamino)propan-2-ol] | IC50 [1]: 190 ± 27 nM
12 | 103 ± 14 nM | 1270 ± 118 nM | 1200 ± 283 nM | CC(N)CNc1c2c3ccccc3nc-2n(C)c2ccc(Cl)cc12 (centres unmarked) [Compound 2m, N-(2-Aminopropyl)-2-chloro-5-methyl-5H-indolo[2,3-b]quinolin-11-amine] | IC50 ([3]; Mus musculus, BALB/3T3, 72 h): 1020 ± 17 nM
13 | 78 ± 20 nM | 988 ± 164 nM | 842 ± 367 nM | Cn1c2nc3ccccc3c-2c(NCC(C)(C)N)c2cc(Br)ccc21 [Compound 2n, N-(2-Amino-2-methylpropyl)-2-bromo-5-methyl-5H-indolo[2,3-b]quinolin-11-amine] | IC50 ([3]; Mus musculus, BALB/3T3, 72 h): 939 ± 18 nM
14 | 549 ± 108 nM |  |  | Cn1c2nc3ccccc3c-2c(NCC(C)(C)CNC(=O)Nc2ccccc2)c2ccccc21 [Compound 3a, 1-(2,2-Dimethyl-3-(5-methyl-5H-indolo[2,3-b]quinolin-11-ylamino)propyl)-3-phenylurea] | 
15 | 427 ± 92 nM |  |  | Cc1ccc2c(c1)c(NCC(C)(C)CNC(=O)Nc1ccccc1)c1c3ccccc3nc-1n2C [Compound 3b, 1-(3-(2,5-Dimethyl-5H-indolo[2,3-b]quinolin-11-ylamino)-2,2-dimethylpropyl)-3-phenylurea] | 
16 | 790 ± 302 nM |  |  | Cn1c2nc3ccccc3c-2c(NCC(C)(C)CNC(=O)Nc2ccccc2)c2cc(Cl)ccc21 [Compound 3c, 1-(3-(2-Chloro-5-methyl-5H-indolo[2,3-b]quinolin-11-ylamino)-2,2-dimethylpropyl)-3-phenylurea] | 
17 | 464 ± 141 nM |  |  | Cn1c2nc3ccccc3c-2c(NCC(C)(C)NC(=O)Nc2ccccc2)c2ccccc21 [Compound 3d, 1-(2-Methyl-1-(5-methyl-5H-indolo[2,3-b]quinolin-11-ylamino)propan-2-yl)-3-phenylurea] | 
18 | 680 ± 215 nM |  |  | Cn1c2nc3ccccc3c-2c(NCC(C)(C)CNC(=S)Nc2ccccc2)c2ccccc21 [Compound 4a, 1-(2,2-Dimethyl-3-(5-methyl-5H-indolo[2,3-b]quinolin-11-ylamino)propyl)-3phenylthiourea] | 
19 | 2330 ± 1010 nM |  |  | Cn1c2nc3ccccc3c-2c(NCC(C)(C)NC(=S)Nc2ccccc2)c2cc(Cl)ccc21 [Compound 4b, 1-(1-(2-Chloro-5-methyl-5H-indolo[2,3-b]quinolin-11-ylamino)-2-methylpropan-2-yl)-3-phenylthiourea] | 
20 | 6 ± 2 nM | 329 ± 97 nM | 390 ± 98 nM | COc1cccc2c1C(=O)c1c(O)c3c(c(O)c1C2=O)C[C@@](O)(C(=O)CO)C[C@@H]3O[C@H]1C[C@H](N)[C@H](O)[C@H](C)O1 [Doxorubicin HCl, reference compound] | IC50 ([3]; Mus musculus, BALB/3T3, 72 h): 1080 ± 33 nM
21 |  |  |  | Cn1c2nc3ccccc3c-2cc2ccccc21 [neocryptolepine (II), neocryptolepine] | IC50 [5]: 7480 ± 4420 nM; IC50 [6]: 12700 ± 1300 nM
